How the values were obtained:
GIP = details: disclosed in WO 01/87341; read-out: IC50 (inhibiting the functions of GIP); cited from earlier work
human GIP receptor = target: T1, human GIP receptor (Homo sapiens, UniProt P48546); experiment: Inhibition of cAMP production by GIP stimulation in human GIP receptor-expressing CHO cells; assay type: cell-based; details: for IC50: 100 pM GIP, 37° C., 30 minutes, human GIP receptor-expressing CHO cells, read-out: IC50 (concentration of the compound at which the production of cAMP by GIP is inhibited by 50%)
T1 construct: expressed in transfected cells; host or cells: CHO cells
T1 sequence (P48546 22-466): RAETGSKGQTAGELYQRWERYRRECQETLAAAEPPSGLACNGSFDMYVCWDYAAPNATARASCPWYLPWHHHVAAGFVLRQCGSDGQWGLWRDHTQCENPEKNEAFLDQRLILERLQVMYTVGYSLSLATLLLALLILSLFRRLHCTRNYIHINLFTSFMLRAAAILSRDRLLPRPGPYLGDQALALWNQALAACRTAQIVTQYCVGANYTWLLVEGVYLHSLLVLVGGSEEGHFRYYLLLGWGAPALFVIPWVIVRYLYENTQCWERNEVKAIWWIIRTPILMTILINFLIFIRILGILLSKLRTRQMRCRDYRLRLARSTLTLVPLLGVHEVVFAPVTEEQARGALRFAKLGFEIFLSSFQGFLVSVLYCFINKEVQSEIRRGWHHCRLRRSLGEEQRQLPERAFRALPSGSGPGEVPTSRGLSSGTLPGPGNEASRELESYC
Source text: The system for evaluation of GIP function inhibitors (GIP receptor antagonists and the like) made use of the following method wherein their inhibitory activity on production of cAMP as GIP intracellular transmitter was used as an indicator.
According to a method of Kubota et al. (Diabetes 45: 1701–1705, 1996), human GIP receptor-expressing cells prepared by introducing GIP cDNA into CHO cells were used. First, cAMP was produced by stimulation with 100 pM GIP in the presence/absence of the test chemical at 37° C. for 30 minutes in phosphate-buffered saline, pH 7.4, containing 1 mM isobutylmethylxanthine, 5.6 mM glucose and 0.5% bovine serum albumin. Then, using a cAMP assay system (PE Biosystems), the cells were lyzed with an attached lysis buffer, the amount of cAMP accumulated in the cells was measured, and the inhibitory activity of the test sample on the functions of GIP was determined. To verify the action of the test sample completely irrelevant to the action on GIP receptor, the inhibitory effect of the test sample on formation of cAMP upon stimulating, with 5 μM forskolin, CHO cells into which the GIP receptor gene had not been introduced (cells not expressing the GIP receptor) was also confirmed. The inhibitory activity was expressed in terms of IC50 (concentration of the compound at which the production of cAMP by GIP is inhibited by 50%). A compound not showing any inhibitory activity on formation of cAMP in the cells not expressing the GIP receptor, but inhibiting the formation of cAMP by stimulation with GIP, in the cells expressing the GIP receptor, was regarded as an active compound.

| Structure (SMILES) | IC50 (human GIP receptor) [nM] | IC50 (GIP) [nM] | inhibition of cAMP formation upon stimulation with GIP (functions of GIP) (human GIP receptor; cells expressing the GIP receptor, result in words) |
| --- | --- | --- | --- |
| Cc1cc(O)n2nc(-c3ccccc3)c(Br)c2n1 [3-bromo-5-methyl-2-phenylpyrazolo[1,5-a]pyrimidin-7-ol] |  | ~40000 |  |
| COc1ccc(/C=N/NC(=O)c2ccc(O)c(Cl)c2)c2ccccc12 [Compound 3, 3-Chloro-4-hydroxybenzoic acid (4-methoxynaphthalen-1-yl)methylidene hydrazide] | 560 |  |  |
| O=C(N/N=C/c1ccc2c(ccn2Cc2ccc(Cl)s2)c1)c1ccc(O)c(Cl)c1 [Compound 4, 3-Chloro-4-hydroxybenzoic acid [1-(5-chlorothiophen-2-ylmethyl)-1H-indol-5-yl]methylidene hydrazide] | 440 |  |  |

More lines, in order of falling IC50 (human GIP receptor), values ahead:

| IC50 (human GIP receptor) [nM] | Structure (SMILES) | IC50 (GIP) [nM] | inhibition of cAMP formation upon stimulation with GIP (functions of GIP) (human GIP receptor; cells expressing the GIP receptor, result in words) |
| --- | --- | --- | --- |
| 19000 | O=C(N/N=C/c1ccccc1Br)c1ccc(O)cc1 [Compound 1] |  | inhibited the functions of GIP though at low levels |
| 6.3 | Cc1cc(C)c(C)c(Cn2ccc3c(/C=N/NC(=O)c4ccc(O)c(C#N)c4)cccc32)c1C [Compound 2, 3-Cyano-4-hydroxybenzoic acid [1-(2,3,5,6-tetramethylbenzyl)indol-4-yl]methylidene hydrazide] |  |  |

Source: patent publication US7081473B2, “Agent for preventing/ameliorating obesity comprising methylidene hydrizide compound as active ingredient” (Sanwa Kagaku Kenkyusho Co., Ltd., priority 2002, dated 2006)
